For orientation: IC50 means the point on the concentration scale where inhibition reaches its midpoint. Read a high IC50 as lower potency.

Structures can show the parent of a compound that is named as a salt. Some results are limits rather than exact numbers.

Chain of IRAK4 (Q9NWZ3 whole entry): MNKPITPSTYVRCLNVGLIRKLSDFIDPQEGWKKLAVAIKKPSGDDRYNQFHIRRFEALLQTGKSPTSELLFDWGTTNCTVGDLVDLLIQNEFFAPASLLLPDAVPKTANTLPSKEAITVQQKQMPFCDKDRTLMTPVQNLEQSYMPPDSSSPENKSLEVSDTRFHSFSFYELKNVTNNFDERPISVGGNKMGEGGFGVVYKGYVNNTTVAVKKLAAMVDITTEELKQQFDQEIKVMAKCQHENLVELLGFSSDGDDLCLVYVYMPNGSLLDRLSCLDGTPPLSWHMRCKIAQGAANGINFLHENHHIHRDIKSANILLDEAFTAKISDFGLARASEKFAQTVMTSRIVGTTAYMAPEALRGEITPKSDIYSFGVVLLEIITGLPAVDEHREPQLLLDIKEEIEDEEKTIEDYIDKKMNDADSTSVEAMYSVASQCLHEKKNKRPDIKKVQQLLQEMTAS

This assay concerns the target IRAK4 (Homo sapiens (Human), UniProt Q9NWZ3). Description: IRAK4 Kinase Assay (IMAP fluorescence polarization). It is filed as biochemical. The conditions noted are these: GST tagged IRAK4, 100 μM ATP, 30 minutes at 25° C., IMAP FP. From the text:
Other assays are known in the literature and could be readily performed by those of skill in the art.
The reaction is initiated by the addition of ATP.
Background: In fluorescence polarisation assays a small probe gives low polarisation when free and higher when bound to something large.
Take `CN1CCCC(Cn2cc(NC(=O)c3cnn4ccc(N[C@@H]5CCCC[C@@H]5N)nc34)c(C(N)=O)n2)C1` (stereo partly drawn) [Example 25, 5-{[(1R,2S)-2-aminocyclohexyl]amino}-N-{3-carbamoyl-1-[(1-methylpiperidin-3-yl)methyl]-1H-pyrazol-4-yl}pyrazolo[1,5-a]pyrimidine-3-carboxamide trifluoroacetate]: the IC50 was found to be 2 nM.

`Cn1cc(NC(=O)c2cnn3ccc(NC4CCCCC4)nc23)c(C(N)=O)n1` [Example 26, N-(3-carbamoyl-1-methyl-1H-pyrazol-4-yl)-5-(cyclohexylamino)pyrazolo[1,5-a]pyrimidine-3-carboxamide trifluoroacetate]: the IC50 was found to be 180 nM. Compared with the last compound, the IC50 is about 90-fold higher.

The compound `Cn1cc(NC(=O)c2cnn3ccc(NC4CCCCC4O)nc23)c(C(N)=O)n1` (stereo not shown) [Example 27, N-(3-carbamoyl-1-methyl-1H-pyrazol-4-yl)-5-[(2-hydroxycyclohexyl)amino]pyrazolo[1,5-a]pyrimidine-3-carboxamide] came in with an IC50 of 210 nM.

Turning to `Cn1cc(NC(=O)c2cnn3ccc(NCC4CNC(=O)C4)nc23)c(C(N)=O)n1` (stereo not shown) [Example 29, N-(3-carbamoyl-1-methyl-1H-pyrazol-4-yl)-5-{[(5-oxopyrrolidin-3-yl)methyl]amino}pyrazolo[1,5-a]pyrimidine-3-carboxamide], the IC50 is 270 nM.

As for `Cn1cc(NC(=O)c2cnn3ccc(N4CCOCC4)nc23)c(C(N)=O)n1` [Example 30, N-(3-carbamoyl-1-methyl-1H-pyrazol-4-yl)-5-morpholin-4-ylpyrazolo[1,5-a]pyrimidine-3-carboxamide hydrochloride], 240 nM corresponded to half-maximal inhibition (IC50).

In turn, `Cn1cc(NC(=O)c2cnn3ccc(N4CCNCC4)nc23)c(C(N)=O)n1` [Example 31, N-(3-carbamoyl-1-methyl-1H-pyrazol-4-yl)-5-piperazin-1-ylpyrazolo[1,5-a]pyrimidine-3-carboxamide hydrochloride] returned an IC50 of 37 nM.

Take `NC(=O)Cn1cc(NC(=O)c2cnn3ccc(N[C@@H]4CCCC[C@@H]4N)nc23)c(C(N)=O)n1` [Example 32, 5-{[(1R,2S)-2-Aminocyclohexyl]amino}-N-[1-(2-amino-2-oxoethyl)-3-carbamoyl-1H-pyrazol-4-yl]pyrazolo[1,5-a]pyrimidine-3-carboxamide]: inhibition was half-maximal at 3 nM (IC50).

For `CNS(=O)(=O)c1ccc(-n2cc(NC(=O)c3cnn4ccc(N5CCNCC5)nc34)c(C(N)=O)n2)cc1` [Example 33, N-{3-Carbamoyl-1-[4-(methylsulfamoyl)phenyl]-1H-pyrazol-4-yl}-5-piperazin-1-ylpyrazolo[1,5-a]pyrimidine-3-carboxamide], the IC50 came out at 4 nM.

On to `NC(=O)c1nn(-c2ccncc2)cc1NC(=O)c1cnn2ccc(N3CCNCC3)nc12` [Example 34, N-(3-carbamoyl-1-pyridin-4-yl-1H-pyrazol-4-yl)-5-piperazin-1-ylpyrazolo[1,5-a]pyrimidine-3-carboxamide trifluoroacetate], for which the IC50 is 25 nM.

As for `NC(=O)c1nn(-c2cccnc2)cc1NC(=O)c1cnn2ccc(N3CCNCC3)nc12` [Example 36, N-(3-carbamoyl-1-pyridin-3-yl-1H-pyrazol-4-yl)-5-piperazin-1-ylpyrazolo[1,5-a]pyrimidine-3-carboxamide trifluoroacetate], the IC50 was found to be 33 nM.

The compound `NC(=O)c1nn(-c2ccccn2)cc1NC(=O)c1cnn2ccc(N3CCNCC3)nc12` [Example 37, N-(3-Carbamoyl-1-pyridin-2-yl-1H-pyrazol-4-yl)-5-piperazin-1-ylpyrazolo[1,5-a]pyrimidine-3-carboxamide] returned an IC50 of 1000 nM.

Consider `Cn1cc(NC(=O)c2cnn3ccc(N4CCNC(=O)C4)nc23)c(C(N)=O)n1` [Example 38, N-(3-Carbamoyl-1-methyl-1H-pyrazol-4-yl)-5-(3-oxopiperazin-1-yl)pyrazolo[1,5-a]pyrimidine-3-carboxamide], for which the concentration for half-maximal inhibition (IC50) came to 400 nM.

`NC(=O)c1ncccc1NC(=O)c1cnn2cccnc12` [Example 41, N-(2-Carbamoylpyridin-3-yl)pyrazolo[1,5-a]pyrimidine-3-carboxamide] gave an IC50 of 4400 nM.

In turn, `Cn1cc(NC(=O)c2ccc3cccnn23)c(C(N)=O)n1` [Example 43, N-(3-carbamoyl-1-methyl-1H-pyrazol-4-yl)pyrrolo[1,2-b]pyridazine-7-carboxamide trifluoroacetate] gave an IC50 of 27 nM. Compared with the last compound, the IC50 is about 160-fold lower.

`NC(=O)c1nn(-c2cccnc2)cc1NC(=O)c1cnn2cccnc12` [Example 44, N-(3-carbamoyl-1-pyridin-3-yl-1H-pyrazol-4-yl)pyrazolo[1,5-a]pyrimidine-3-carboxamide] returned an IC50 of 59 nM.

With `NC(=O)c1ccncc1NC(=O)c1cnn2cccnc12` [Example 45, N-(4-carbamoylpyridin-3-yl)pyrazolo[1,5-a]pyrimidine-3-carboxamide hydrochloride], the IC50 was determined as 8100 nM.

`CC(C)(C)OC(=O)N1CCC(n2cc(NC(=O)c3cnn4cccnc34)c(C(N)=O)n2)CC1` [Example 46, tert-butyl 4-{3-carbamoyl-4-[(pyrazolo[1,5-a]pyrimidin-3-ylcarbonyl)amino]-1H-pyrazol-1-yl}piperidine-1-carboxylate] yielded an IC50 of 670 nM. Compared with the last compound, the IC50 is about 12-fold lower.

Take `NC(=O)c1nn(C2CCNCC2)cc1NC(=O)c1cnn2cccnc12` [Example 47, N-(3-carbamoyl-1-piperidin-4-yl-1H-pyrazol-4-yl)pyrazolo[1,5-a]pyrimidine-3-carboxamide hydrochloride]: the IC50 amounted to 470 nM.

As for `CS(=O)(=O)N1CCC(n2cc(NC(=O)c3cnn4cccnc34)c(C(N)=O)n2)CC1` [Example 48, N-{3-carbamoyl-1-[1-(methylsulfonyl)piperidin-4-yl]-1H-pyrazol-4-yl}pyrazolo[1,5-a]pyrimidine-3-carboxamide], the IC50 was 650 nM. The IC50 values of the last two compounds are within 1.5-fold of each other.

`NC(=O)c1cnccc1NC(=O)c1cnn2cccnc12` [Example 49, N-(3-carbamoylpyridin-4-yl)pyrazolo[1,5-a]pyrimidine-3-carboxamide hydrochloride] yielded an IC50 of 710 nM. This IC50 and that of the compound before are within 1.5-fold of each other.

Take `NC(=O)c1sccc1NC(=O)c1cnn2cccnc12` [Example 50, N-(2-carbamoylthiophen-3-yl)pyrazolo[1,5-a]pyrimidine-3-carboxamide hydrochloride]: half-maximal inhibition (IC50) required 3500 nM.

`CC(C)(C)c1cc(NC(=O)c2cnn3cccnc23)c(C(N)=O)s1` [Example 51, N-(5-tert-butyl-2-carbamoylthiophen-3-yl)pyrazolo[1,5-a]pyrimidine-3-carboxamide hydrochloride] came in with an IC50 of 8500 nM.

Consider `NC(=O)c1ccccc1NC(=O)c1cnn2cccnc12` [Example 52, N-(2-carbamoylphenyl)pyrazolo[1,5-a]pyrimidine-3-carboxamide hydrochloride], for which the IC50 was 7600 nM. This IC50 and that of the compound before are within 1.5-fold of each other.

The compound `NC(=O)c1n[nH]cc1NC(=O)c1cnn2cccnc12` [Example 53, N-(3-carbamoyl-1H-pyrazol-4-yl)pyrazolo[1,5-a]pyrimidine-3-carboxamide trifluoroacetate] displayed an IC50 of 700 nM.

`NC(=O)c1cc(S(N)(=O)=O)c(Cl)cc1NC(=O)c1cnn2cccnc12` [Example 54, N-(2-carbamoyl-5-chloro-4-sulfamoylphenyl)pyrazolo[1,5-a]pyrimidine-3-carboxamide trifluoroacetate] displayed an IC50 of 310 nM. Against the preceding compound, the IC50 is about 2.3-fold lower.

Turning to `NC(=O)c1cc(Br)ccc1NC(=O)c1cnn2cccnc12` [Example 55, N-(4-bromo-2-carbamoylphenyl)pyrazolo[1,5-a]pyrimidine-3-carboxamide hydrochloride], the IC50 is > 5000 nM.

On to `Cn1cc(NC(=O)c2csc3nccnc23)c(C(N)=O)n1` [Example 56, N-(3-Carbamoyl-1-methyl-1H-pyrazol-4-yl)thieno[2,3-b]pyrazine-7-carboxamide], for which the 50% inhibitory concentration (IC50) was found to be 69 nM.

Compound `Cn1cc(NC(=O)c2ccc3cnc(NCCN)nn23)c(C(N)=O)n1` [Example 58, 2-[(2-Aminoethyl)amino]-N-(3-carbamoyl-1-methyl-1H-pyrazol-4-yl)pyrrolo[2,1-f][1,2,4]triazine-7-carboxamide] gave an IC50 of 0.9 nM.

`NCCNc1ncc2ccc(C(=O)Nc3cn(CCO)nc3C(N)=O)n2n1` [Example 59, 2-[(2-aminoethyl)amino]-N-[3-carbamoyl-1-(2-hydroxyethyl)-1H-pyrazol-4-yl]pyrrolo[2,1-f][1,2,4]triazine-7-carboxamide trifluoroacetate]: the IC50 came out at 2 nM.

As to `CNC(=O)c1nn(C)cc1NC(=O)c1ccc2cnc(NCCN)nn12` [Example 60, 2-[(2-aminoethyl)amino]-N-[1-methyl-3-(methylcarbamoyl)-1H-pyrazol-4-yl]pyrrolo[2,1-f][1,2,4]triazine-7-carboxamide trifluoroacetate], half-maximal inhibition (IC50) required 3 nM.

For the compound `Cn1cc(NC(=O)c2ccc3cnc(N[C@@H]4CCCC[C@@H]4N)nn23)c(C(N)=O)n1` [Example 61, 2-{[(1R,2S)-2-aminocyclohexyl]amino}-N-(3-carbamoyl-1-methyl-1H-pyrazol-4-yl)pyrrolo[2,1-f][1,2,41triazine-7-carboxamide trifluoroacetate], half-maximal inhibition (IC50) was put at 0.7 nM.

Regarding `CCn1cc(NC(=O)c2ccc3cnc(N[C@@H]4CCCC[C@@H]4N)nn23)c(C(N)=O)n1` [Example 62, 2-{[(1R,2S)-2-aminocyclohexyl]amino}-N-(3-carbamoyl-1-ethyl-1H-pyrazol-4-yl)pyrrolo[2,1-f][1,2,41triazine-7-carboxamide trifluoroacetate], the IC50 was 1 nM.

Take `NC(=O)c1nn(CCO)cc1NC(=O)c1ccc2cnc(N[C@@H]3CCCC[C@@H]3N)nn12` [Example 63, 2-{[(1R,2S)-2-aminocyclohexyl]amino}-N-[3-carbamoyl-1-(2-hydroxyethyl)-1H-pyrazol-4-yl]pyrrolo[2,1-f][1,2,4]triazine-7-carboxamide trifluoroacetate]: the midpoint of inhibition, the IC50, lay at 3 nM. Compared with the last compound, the IC50 is about 3-fold higher.

As to `CNC(=O)c1nn(C)cc1NC(=O)c1ccc2cnc(N[C@@H]3CCCC[C@@H]3N)nn12` [Example 64, 2-{[(1R,2S)-2-aminocyclohexyl]amino}-N-[1-methyl-3-(methylcarbamoyl)-1H-pyrazol-4-yl]pyrrolo[2,1-f][1,2,4]triazine-7-carboxamide trifluoroacetate], the half-inhibitory concentration (IC50) came out at 13 nM.

The record behind these values is patent US10155765B2, “Carboxamide inhibitors of IRAK4 activity” (MERCK SHARP & DOHME CORP., priority 2015, dated 2018).
